Source: patent EP1143981B1, “USE OF N-GLYCOLNEURAMINIC ACID AND ITS DERIVATIVES FOR THE MANUFACTURE OF A MEDICAMENT FOR THE TREATMENT OF HIV INFECTIONS” (Glukor, Inc., priority 1998, dated 2000)

Tested on: X4 strain LAI/IIIB
Assay: RT activity in infected PBMCs over 20 days post-infection
Format: cell-based
Description: Reverse Transcriptase Activity Assay: A microtiter based reverse transcriptase (RT) reaction was utilized as described by Buckheit et al., (1991), AIDS Research and Human Retroviruses, 7:295-302. Tritiated thymidine triphosphate (^3H-TTP) was suspended in distilled H2O at 5 Ci/mL. Poly rA and oligo dT were prepared as a stock solution which was kept at -20°C. RT reaction buffer was prepared fresh on a daily basis and contained 125 µL 1M EGTA, 125 µL dH2O, 110 µL 10% SDS, 50 µL 1M Tris (pH 7.4), 50 µL 1M DTT, and 40 µL 1M MgCl2. These three solutions were mixed together in a ratio of 2 parts ^3H-TTP, 1 part poly rA:oligo dT, and 1 part reaction buffer. Ten microliters of this reaction mixture were placed in a round bottom microtiter plate and 15 µL of virus containing supernatant were added and mixed. The plate was incubated at 37°C in a water bath with a solid support to prevent submersion of the plate and incubated for 60 minutes. After the incubation period, the reaction volume was spotted onto pieces of DE81 paper, washed 5 times for 5 minutes each in a 5% sodium phosphate buffer, 2 times for 1 minute each in distilled water, 2 times for 1 minute each in 70% ethanol, and then dried. Opti-Fluor-O (Packard) was added to each sample and incorporated radioactivity was quantified utilizing a Wallac 1450 MicroBeta Plus liquid scintillation counter. Plates were screened with tetrazolium dye staining as described above.
PBMCs were treated with dilutions of LUKOR of 1:4, 1:20, 1:100, 1:500, or 1:2500, or concentrations ofN-glycolylneuraminic acid or N-acetylneuraminic acid of 0.4, 1.2, 3.6, 11, or 33µg/ml. No carbohydrates were added to the control sample. RT activity was determined at 3, 6, 9,13, 17, and 20 days post-infection (PI) with X4 strain LAI/IIIB.

## O=C(CO)N[C@H]1[C@H]([C@H](O)[C@H](O)CO)OC(O)(C(=O)O)C[C@@H]1O (stereo partly shown) [N-glycolylneuraminic acid]
0.4 µg/ml, 3 days PI
  RT Activity: 53
0.4 µg/ml, 6 days PI
  RT Activity: 113
0.4 µg/ml, 9 days PI
  RT Activity: 1342
0.4 µg/ml, 13 days PI
  RT Activity: 1371
0.4 µg/ml, 17 days PI
  RT Activity: 1509
0.4 µg/ml, 20 days PI
  RT Activity: 1250
3.6 µg/ml, 3 days PI
  RT Activity: 45
3.6 µg/ml, 6 days PI
  RT Activity: 44
3.6 µg/ml, 9 days PI
  RT Activity: 139
3.6 µg/ml, 13 days PI
  RT Activity: 428
3.6 µg/ml, 17 days PI
  RT Activity: 1262
3.6 µg/ml, 20 days PI
  RT Activity: 616
11 µg/ml, 3 days PI
  RT Activity: 40
11 µg/ml, 6 days PI
  RT Activity: 75
11 µg/ml, 9 days PI
  RT Activity: 956
11 µg/ml, 13 days PI
  RT Activity: 2544
11 µg/ml, 17 days PI
  RT Activity: 3261
11 µg/ml, 20 days PI
  RT Activity: 1411
33 µg/ml, 3 days PI
  RT Activity: 32
33 µg/ml, 6 days PI
  RT Activity: 75
33 µg/ml, 9 days PI
  RT Activity: 567
33 µg/ml, 13 days PI
  RT Activity: 1103
33 µg/ml, 17 days PI
  RT Activity: 2356
33 µg/ml, 20 days PI
  RT Activity: 2917
All dilutions/concentrations, 3-20 days PI
  RT activity in treated cells (summary in words): RT activity was decreased
